Reference: the NIST ThermoML archive (doi:10.1016/j.fluid.2014.12.040)
Numbers after ± are expanded uncertainties.

Assay: xn = mol fraction of the nth substance listed
Conditions: for surface tension liquid-gas: Wilhelmy-plate method; for mass density: 100 kPa, Liquid, Vibrating tube method

CC(O)CO (stereo not given) [1,2-propanediol] + CC(C)O
Conditions	mass density, 298.15 K [kg/m3]	mass density, 308.15 K [kg/m3]	mass density, 318.15 K [kg/m3]	mass density, 328.15 K [kg/m3]	surface tension liquid-gas, 298.15 K [mN/m]	surface tension liquid-gas, 308.15 K [mN/m]	surface tension liquid-gas, 318.15 K [mN/m]	surface tension liquid-gas, 328.15 K [mN/m]
x2 = 0	1032.69 ± 0.05	1025.21 ± 0.05	1017.51 ± 0.04	1009.78 ± 0.04	35.74 ± 0.2	35.35 ± 0.2	34.96 ± 0.2	34.6 ± 0.2
x2 = 0.05	1020.3 ± 0.07	1012.75 ± 0.07	1005.08 ± 0.06	997.4 ± 0.06	32.86 ± 0.2	32.56 ± 0.2	32.35 ± 0.2	32.15 ± 0.2
x2 = 0.1	1007.84 ± 0.07	1000.22 ± 0.06	992.51 ± 0.07	984.7 ± 0.07	31.27 ± 0.2	30.98 ± 0.2	30.74 ± 0.2	30.54 ± 0.2
x2 = 0.15	995.3 ± 0.06	987.63 ± 0.07	979.84 ± 0.07	971.99 ± 0.07	30.1 ± 0.2	29.77 ± 0.2	29.48 ± 0.2	29.26 ± 0.2
x2 = 0.2	982.74 ± 0.07	974.98 ± 0.07	967.11 ± 0.07	959.2 ± 0.07	29.09 ± 0.2	28.74 ± 0.2	28.42 ± 0.2	28.18 ± 0.2
x2 = 0.25	970.17 ± 0.07	962.34 ± 0.07	954.39 ± 0.07	946.41 ± 0.08	28.21 ± 0.2	27.85 ± 0.2	27.51 ± 0.2	27.25 ± 0.2
x2 = 0.3	957.54 ± 0.07	949.69 ± 0.07	941.69 ± 0.08	933.61 ± 0.08	27.43 ± 0.2	27.04 ± 0.2	26.68 ± 0.2	26.4 ± 0.2
x2 = 0.35	944.87 ± 0.08	936.95 ± 0.08	928.9 ± 0.08	920.73 ± 0.08	26.72 ± 0.2	26.31 ± 0.2	25.94 ± 0.2	25.64 ± 0.2
x2 = 0.4	932.21 ± 0.08	924.2 ± 0.08	916.09 ± 0.08	907.91 ± 0.09	26.06 ± 0.2	25.64 ± 0.2	25.25 ± 0.2	24.93 ± 0.2
x2 = 0.45	919.52 ± 0.08	911.47 ± 0.09	903.3 ± 0.09	895.1 ± 0.09	25.43 ± 0.2	25.01 ± 0.2	24.64 ± 0.2	24.3 ± 0.2
x2 = 0.5	906.84 ± 0.09	898.7 ± 0.09	890.5 ± 0.09	882.26 ± 0.1	24.89 ± 0.2	24.47 ± 0.2	24.05 ± 0.2	23.71 ± 0.2
x2 = 0.55	894.16 ± 0.09	885.97 ± 0.09	877.7 ± 0.1	869.44 ± 0.1	24.39 ± 0.2	23.94 ± 0.2	23.52 ± 0.2	23.16 ± 0.2
x2 = 0.6	881.5 ± 0.1	873.25 ± 0.1	865 ± 0.1	856.69 ± 0.1	23.89 ± 0.2	23.44 ± 0.2	23.01 ± 0.2	22.64 ± 0.2
x2 = 0.65	868.82 ± 0.1	860.56 ± 0.1	852.29 ± 0.1	843.93 ± 0.11	23.43 ± 0.2	22.95 ± 0.2	22.51 ± 0.2	22.12 ± 0.2
x2 = 0.7	856.16 ± 0.1	847.8 ± 0.11	839.59 ± 0.11	831.21 ± 0.11	22.99 ± 0.2	22.49 ± 0.2	22.03 ± 0.2	21.62 ± 0.2
x2 = 0.75	843.49 ± 0.11	835.09 ± 0.11	826.8 ± 0.11	818.53 ± 0.12	22.58 ± 0.2	22.04 ± 0.2	21.56 ± 0.2	21.13 ± 0.2
x2 = 0.8	830.89 ± 0.11	822.4 ± 0.12	813.99 ± 0.12	805.71 ± 0.12	22.2 ± 0.2	21.63 ± 0.2	21.11 ± 0.2	20.65 ± 0.2
x2 = 0.85	818.33 ± 0.12	809.75 ± 0.12	801.22 ± 0.12	792.81 ± 0.13	21.82 ± 0.2	21.21 ± 0.2	20.66 ± 0.2	20.16 ± 0.2
x2 = 0.9	805.84 ± 0.12	797.18 ± 0.12	788.63 ± 0.13	780.09 ± 0.13	21.47 ± 0.2	20.82 ± 0.2	20.23 ± 0.2	19.68 ± 0.2
x2 = 0.95	793.45 ± 0.12	784.7 ± 0.13	776.1 ± 0.13	767.47 ± 0.13	21.12 ± 0.2	20.43 ± 0.2	19.8 ± 0.2	19.21 ± 0.2
